Earlier results, collected in US20070148205A1, “Prevention of Arterial Restenosis with Active Vitamin D Compounds” (priority 2004, published 2007).

Settings: in vivo

Which “Hypercalcemic effect compared to calcitriol, in words” value does the source give for `C=C1/C(=C\C=C2/CCC[C@]3(C)C([C@H](C)CC#CC(C)(C)O)=CC[C@@H]23)C[C@@H](O)C[C@@H]1O` [Ro23-7553] here?
The value was “reduced hypercalcemic effect”.
